Experimental data reported in US20210186962A1, “METHODS OF SCHIZOPHRENIA TREATMENT” (INTRA-CELLULAR THERAPIES, INC., priority 2019, published 2021).

Columns and labels:
[1] = system: elderly subjects with dementia; details: cited from earlier work
muscarinic receptors = assay: Receptor binding, muscarinic; details: at 100 nM
[2] = biological target: (Homo sapiens, UniProt Q8TCC7); assay: In vitro transporter inhibition; assay type: in vitro ADME
[3] = system: UGT 1A1, 1A4, 2B15; AKR 1C1, 1B10, 1C4; CYP 3A4, 2C8, 1A2; assay: In vitro studies of enzymes involved in metabolism; assay type: in vitro ADME
OAT1 = OAT1 (Homo sapiens, UniProt Q4U2R8); assay: In vitro transporter inhibition; assay type: in vitro ADME
OCT2 = OCT2 (Homo sapiens, UniProt O15244); assay: In vitro transporter inhibition; assay type: in vitro ADME
[4] = Human mass balance study, 14C-labeled oral dose; assay type: in vivo
CYP2D6 = CYP2D6 (Homo sapiens, UniProt P10635); assay: In vitro CYP inhibition; assay type: in vitro ADME
[5] = Drug interaction: CYP3A4 substrate midazolam; assay type: in vivo, human; details: single or multiple doses of lumateperone in patients with schizophrenia
[6] = Pharmacokinetic studies (oral, intravenous, food effect)
P-gp = P-gp (Homo sapiens, UniProt P08183); assay: In vitro transporter substrate; assay type: in vitro ADME
Plasma protein binding = assay type: in vitro ADME; details: at 5 μM in human plasma (about 70-fold higher than therapeutic concentrations)
[7] = Pharmacokinetics in specific populations; assay type: in vivo, human
Excerpt: Use of lumateperone (e.g., lumateperone tosylate) is not recommended for patients with moderate (Child-Pugh class B) to severe hepatic impairment (Child-Pugh class C). […] No dosage adjustment is recommended for patients with mild hepatic impairment (Child-Pugh A).

OATP1B1 = OATP1B1 (Homo sapiens, UniProt Q9Y6L6); assay: In vitro transporter inhibition; assay type: in vitro ADME
CYP3A4 = assay: In vitro CYP induction; assay type: in vitro ADME
CYP2B6 = assay: In vitro CYP induction; assay type: in vitro ADME
CYP1A2 [8] = biological target: CYP1A2 (Homo sapiens, UniProt P05177); assay: In vitro CYP inhibition; assay type: in vitro ADME
histaminergic receptors = assay: Receptor binding, histaminergic; details: at 100 nM
BCRP = BCRP (Homo sapiens, UniProt Q9UNQ0); assay: In vitro transporter substrate; assay type: in vitro ADME
dopamine D2 receptors = dopamine D2 receptors (Homo sapiens, UniProt P14416); assay: Receptor binding affinity, dopamine D2
OATP1B3 = OATP1B3 (Homo sapiens, UniProt Q9NPD5); assay: In vitro transporter inhibition; assay type: in vitro ADME
CYP2C9 = CYP2C9 (Homo sapiens, UniProt P11712); assay: In vitro CYP inhibition; assay type: in vitro ADME
CYP2C19 = CYP2C19 (Homo sapiens, UniProt P33261); assay: In vitro CYP inhibition; assay type: in vitro ADME
CYP1A2 [9] = assay: In vitro CYP induction; assay type: in vitro ADME
[10] = Drug interaction: effects of other drugs on lumateperone exposure; set-up: species or system human; details: in vivo
Excerpt: Such concomitant use should therefore be avoided. Moderate CYP 3A4 inhibitors include amprenavir, ciprofloxacin, cyclosporine, diltiazem, erythromycin, fluconazole, fluvoxamine, and verapamil. Strong CYP 3A4 inhibitors include clarithromycin, grapefruit juice, itraconazole, voriconazole, nefazodone, ritonavir, and nelfinavir.
Such concomitant use should therefore be avoided. CYP 3A4 inducers include carbamazepine, phenytoin, rifampin, St. John's wort, bosentan, efavirenz, etravirine, modafinil, nafcillin, aprepitant, armodafinil, pioglitazone, and prednisone.

[11] = system: adult patients with schizophrenia; assay: Pooled short-term (4- to 6-week) placebo-controlled schizophrenia trials, safety; assay type: in vivo, human; details: for Somnolence/Sedation, adverse reaction incidence: placebo 10%, 4-methylbenzenesulfonate
Description: Of these patients, 811 participated in short-term (4- to 6-week), placebo-controlled trials with doses ranging from 14 to 84 mg/day.
In the 4- to 6-week trials, data were collected using the Simpson Angus Scale (SAS) for EPS (total score ranges from 0 to 40), the Barnes Akathisia Rating Scale (BARS) for akathisia (total score ranges from 0 to 14), and the Abnormal Involuntary Movement Scale (AIMS) for dyskinesia (total score ranges from 0 to 28).

[12] = system: adult patients with a diagnosis of schizophrenia; assay: Study 1 (NCT01499563), four-week placebo-controlled, PANSS total score; assay type: in vivo, human
Excerpt: Study 1 (NCT01499563) was a four-week, randomized, double-blind, placebo-controlled, multi-center study in adult patients with a diagnosis of schizophrenia according to the DSM-IV-TR criteria. The primary efficacy measure was the Positive and Negative Syndrome Scale (PANSS) total score. The PANSS is a 30-item scale used to measure symptoms of schizophrenia. Each item is rated by a clinician on a seven-point scale. A score of 1 indicates the absence of symptoms, and a score of 7 indicates extremely severe symptoms. The PANSS total score may range from 30 to 210 with higher scores reflecting greater overall symptom severity.
Median age was 42 years (range 20 to 55 years). 17% were female, 19% were Caucasian, and 78% were African American.

[13] = system: adult patients with a diagnosis of schizophrenia; assay: Study 2 (NCT02282761), four-week placebo-controlled, PANSS total score; assay type: in vivo, human
Excerpt: Study 2 (NCT02282761) was a four-week, randomized, double-blind, placebo-controlled, multi-center study in adult patients with a diagnosis of schizophrenia according to the DSM-5 criteria. The primary efficacy measure was the PANSS total score. […] Median age was 44 years (range 19 to 60 years); 23% were female, 26% were Caucasian and 66% were African American.

[14] = system: patients with schizophrenia; assay: QTcF four-arm crossover study; assay type: in vivo, human
Description: QTcF interval was evaluated in a randomized, placebo- and active-(moxifloxacin 400 mg) controlled, four-arm crossover study utilizing concentration-QTc effect modeling in 33 patients with schizophrenia.

[15] = system: patients with stable schizophrenia; assay: Uncontrolled open-label trial for up to 1 year; assay type: in vivo, human
Excerpt: A total of 4.7% of patients with normal hemoglobin A1c (<6.5%) at baseline developed elevated levels (>6.5%) post-baseline.

[16] = 4- to 6-week trials, 60 mg tosylate daily, N = 406, placebo 1%
[17] = 4- to 6-week trials, 60 mg tosylate daily, N = 406, placebo 2%

Chain of P-gp (P08183 whole entry): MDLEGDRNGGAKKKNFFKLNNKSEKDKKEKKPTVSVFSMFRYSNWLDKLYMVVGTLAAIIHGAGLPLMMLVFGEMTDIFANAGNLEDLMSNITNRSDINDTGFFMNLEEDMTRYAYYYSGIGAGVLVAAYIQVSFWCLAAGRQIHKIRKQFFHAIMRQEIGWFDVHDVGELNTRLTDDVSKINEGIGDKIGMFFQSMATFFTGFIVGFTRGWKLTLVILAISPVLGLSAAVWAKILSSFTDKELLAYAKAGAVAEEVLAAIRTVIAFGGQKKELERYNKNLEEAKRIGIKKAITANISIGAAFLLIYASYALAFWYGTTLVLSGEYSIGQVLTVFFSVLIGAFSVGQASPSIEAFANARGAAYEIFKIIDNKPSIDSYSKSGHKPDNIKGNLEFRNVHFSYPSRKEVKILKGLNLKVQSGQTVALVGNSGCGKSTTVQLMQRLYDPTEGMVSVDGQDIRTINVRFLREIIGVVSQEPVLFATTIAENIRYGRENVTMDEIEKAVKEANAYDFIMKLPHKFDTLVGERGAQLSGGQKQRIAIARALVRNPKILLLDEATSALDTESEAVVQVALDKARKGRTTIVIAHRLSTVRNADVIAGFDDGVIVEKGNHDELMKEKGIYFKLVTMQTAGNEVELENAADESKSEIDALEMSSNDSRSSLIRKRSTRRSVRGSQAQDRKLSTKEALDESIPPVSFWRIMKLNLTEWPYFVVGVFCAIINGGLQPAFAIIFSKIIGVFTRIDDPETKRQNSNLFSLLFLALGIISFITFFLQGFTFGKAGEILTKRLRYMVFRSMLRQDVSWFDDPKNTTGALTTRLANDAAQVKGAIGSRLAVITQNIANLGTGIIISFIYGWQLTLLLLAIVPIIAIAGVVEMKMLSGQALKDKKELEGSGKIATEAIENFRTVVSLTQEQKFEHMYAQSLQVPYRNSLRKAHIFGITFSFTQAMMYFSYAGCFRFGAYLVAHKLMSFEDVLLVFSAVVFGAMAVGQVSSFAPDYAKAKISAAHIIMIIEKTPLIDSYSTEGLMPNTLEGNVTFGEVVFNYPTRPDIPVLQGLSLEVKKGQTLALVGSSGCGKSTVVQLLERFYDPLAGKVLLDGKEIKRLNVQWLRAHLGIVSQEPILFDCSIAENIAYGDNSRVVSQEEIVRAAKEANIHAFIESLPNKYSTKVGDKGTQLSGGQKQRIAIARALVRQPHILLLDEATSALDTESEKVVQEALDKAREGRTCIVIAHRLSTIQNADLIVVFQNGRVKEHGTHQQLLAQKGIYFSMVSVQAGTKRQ
Chain of (Homo sapiens, UniProt Q8TCC7) (Q8TCC7 whole entry): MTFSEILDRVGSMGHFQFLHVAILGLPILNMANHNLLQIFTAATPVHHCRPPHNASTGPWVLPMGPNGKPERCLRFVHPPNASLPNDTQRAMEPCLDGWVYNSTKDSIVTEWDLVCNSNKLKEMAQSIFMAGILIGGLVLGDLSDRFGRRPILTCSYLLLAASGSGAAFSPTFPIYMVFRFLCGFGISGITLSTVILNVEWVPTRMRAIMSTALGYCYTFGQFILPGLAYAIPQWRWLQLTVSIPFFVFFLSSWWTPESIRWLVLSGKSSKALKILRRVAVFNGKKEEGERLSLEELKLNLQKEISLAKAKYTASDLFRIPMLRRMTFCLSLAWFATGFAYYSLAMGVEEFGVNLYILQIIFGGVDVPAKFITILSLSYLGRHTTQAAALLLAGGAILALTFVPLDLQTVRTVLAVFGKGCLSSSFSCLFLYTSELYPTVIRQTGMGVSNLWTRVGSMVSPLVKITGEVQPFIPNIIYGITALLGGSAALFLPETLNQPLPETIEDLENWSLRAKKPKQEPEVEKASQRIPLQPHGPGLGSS
Chain of OAT1 (Q4U2R8 whole entry): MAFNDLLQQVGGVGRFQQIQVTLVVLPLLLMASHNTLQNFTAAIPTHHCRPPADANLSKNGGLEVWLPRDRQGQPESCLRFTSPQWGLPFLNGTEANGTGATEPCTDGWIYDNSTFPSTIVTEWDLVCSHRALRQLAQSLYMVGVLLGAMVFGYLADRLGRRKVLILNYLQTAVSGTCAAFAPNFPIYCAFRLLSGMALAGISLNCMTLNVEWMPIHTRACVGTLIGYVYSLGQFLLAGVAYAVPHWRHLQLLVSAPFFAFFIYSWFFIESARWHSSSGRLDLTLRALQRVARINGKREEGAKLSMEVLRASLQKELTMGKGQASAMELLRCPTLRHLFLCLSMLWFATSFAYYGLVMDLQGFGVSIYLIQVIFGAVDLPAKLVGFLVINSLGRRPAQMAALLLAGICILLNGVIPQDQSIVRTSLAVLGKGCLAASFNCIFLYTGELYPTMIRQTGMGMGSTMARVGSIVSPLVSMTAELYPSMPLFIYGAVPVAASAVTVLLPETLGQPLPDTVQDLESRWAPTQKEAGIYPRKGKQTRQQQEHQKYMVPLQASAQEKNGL
Chain of CYP2D6 (P10635 whole entry): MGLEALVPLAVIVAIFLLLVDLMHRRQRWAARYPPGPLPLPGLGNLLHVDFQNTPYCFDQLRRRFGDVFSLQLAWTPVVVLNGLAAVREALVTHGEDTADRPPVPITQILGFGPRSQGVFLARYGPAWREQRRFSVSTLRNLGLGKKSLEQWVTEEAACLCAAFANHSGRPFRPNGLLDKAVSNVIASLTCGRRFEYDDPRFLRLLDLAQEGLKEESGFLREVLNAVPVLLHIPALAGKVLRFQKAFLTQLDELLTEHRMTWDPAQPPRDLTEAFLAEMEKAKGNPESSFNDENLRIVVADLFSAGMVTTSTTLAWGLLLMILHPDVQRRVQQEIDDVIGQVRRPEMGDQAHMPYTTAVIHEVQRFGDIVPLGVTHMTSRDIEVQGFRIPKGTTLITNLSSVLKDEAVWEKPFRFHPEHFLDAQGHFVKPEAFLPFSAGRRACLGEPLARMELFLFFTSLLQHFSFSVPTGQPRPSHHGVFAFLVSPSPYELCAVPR
Chain of CYP2C9 (P11712 whole entry): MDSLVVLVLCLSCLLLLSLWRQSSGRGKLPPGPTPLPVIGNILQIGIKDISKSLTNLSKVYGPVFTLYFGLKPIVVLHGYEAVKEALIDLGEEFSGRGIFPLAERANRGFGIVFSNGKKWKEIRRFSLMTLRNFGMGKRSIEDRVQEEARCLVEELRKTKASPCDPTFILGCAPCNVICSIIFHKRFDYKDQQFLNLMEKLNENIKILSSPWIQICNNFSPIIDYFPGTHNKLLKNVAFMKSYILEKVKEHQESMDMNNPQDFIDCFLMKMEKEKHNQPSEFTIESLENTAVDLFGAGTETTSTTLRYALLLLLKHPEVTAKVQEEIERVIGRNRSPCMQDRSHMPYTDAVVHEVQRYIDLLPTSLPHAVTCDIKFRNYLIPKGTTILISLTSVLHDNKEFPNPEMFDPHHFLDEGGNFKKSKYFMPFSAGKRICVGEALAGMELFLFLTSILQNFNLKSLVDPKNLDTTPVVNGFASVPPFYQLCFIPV
Chain of dopamine D2 receptors (P14416 whole entry): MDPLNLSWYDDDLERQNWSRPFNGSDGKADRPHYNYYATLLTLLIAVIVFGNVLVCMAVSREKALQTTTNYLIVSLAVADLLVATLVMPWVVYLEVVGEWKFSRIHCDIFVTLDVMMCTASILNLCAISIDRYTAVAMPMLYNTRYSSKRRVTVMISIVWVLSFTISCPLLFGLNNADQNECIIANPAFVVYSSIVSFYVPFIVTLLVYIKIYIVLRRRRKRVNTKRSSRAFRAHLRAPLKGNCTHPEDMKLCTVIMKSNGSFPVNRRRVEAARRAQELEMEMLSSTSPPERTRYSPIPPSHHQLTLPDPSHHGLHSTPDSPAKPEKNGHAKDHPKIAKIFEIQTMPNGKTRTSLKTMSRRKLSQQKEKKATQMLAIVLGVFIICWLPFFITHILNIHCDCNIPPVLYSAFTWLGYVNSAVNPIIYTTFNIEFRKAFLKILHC
Chain of OATP1B1 (Q9Y6L6 whole entry): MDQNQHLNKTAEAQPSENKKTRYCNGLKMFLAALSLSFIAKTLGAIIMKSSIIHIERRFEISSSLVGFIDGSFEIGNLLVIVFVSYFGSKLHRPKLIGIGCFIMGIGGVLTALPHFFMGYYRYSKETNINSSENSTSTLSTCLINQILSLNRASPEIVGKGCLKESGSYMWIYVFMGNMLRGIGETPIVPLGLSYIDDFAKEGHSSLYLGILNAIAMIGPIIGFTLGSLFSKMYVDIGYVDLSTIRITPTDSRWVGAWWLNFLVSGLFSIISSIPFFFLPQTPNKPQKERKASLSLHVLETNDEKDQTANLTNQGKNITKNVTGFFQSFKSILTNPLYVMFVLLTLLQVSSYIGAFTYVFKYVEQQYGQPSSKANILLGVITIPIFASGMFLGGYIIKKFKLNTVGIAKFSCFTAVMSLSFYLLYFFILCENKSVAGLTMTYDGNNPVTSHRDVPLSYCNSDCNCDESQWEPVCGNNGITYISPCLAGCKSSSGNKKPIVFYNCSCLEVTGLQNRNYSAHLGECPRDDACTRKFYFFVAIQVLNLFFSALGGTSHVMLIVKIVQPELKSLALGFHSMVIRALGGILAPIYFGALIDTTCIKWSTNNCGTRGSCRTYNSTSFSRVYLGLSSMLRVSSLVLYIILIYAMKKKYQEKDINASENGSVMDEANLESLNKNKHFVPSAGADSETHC
Chain of CYP2C19 (P33261 whole entry): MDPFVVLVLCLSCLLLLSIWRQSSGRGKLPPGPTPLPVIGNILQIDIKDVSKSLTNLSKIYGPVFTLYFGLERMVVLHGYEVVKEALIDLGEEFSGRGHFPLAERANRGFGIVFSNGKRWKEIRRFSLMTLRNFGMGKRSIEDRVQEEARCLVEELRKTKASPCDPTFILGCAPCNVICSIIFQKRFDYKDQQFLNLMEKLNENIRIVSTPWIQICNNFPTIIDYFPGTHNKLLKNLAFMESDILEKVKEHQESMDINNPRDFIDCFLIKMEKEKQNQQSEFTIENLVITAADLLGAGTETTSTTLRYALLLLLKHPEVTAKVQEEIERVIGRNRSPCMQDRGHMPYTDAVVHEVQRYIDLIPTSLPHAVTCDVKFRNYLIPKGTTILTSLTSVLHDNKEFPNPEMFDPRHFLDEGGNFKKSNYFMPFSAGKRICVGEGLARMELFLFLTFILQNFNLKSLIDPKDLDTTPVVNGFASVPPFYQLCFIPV

## Cc1nc2n(c(=O)c1CCN1CCC(c3noc4cc(F)ccc34)CC1)CCCC2 [risperidone]
[1]
  incidence of stroke and transient ischemic attack, including fatal stroke, versus placebo: higher incidence

## CN1CCN2c3c(cccc31)[C@@H]1CN(CCCC(=O)c3ccc(F)cc3)CC[C@@H]12 [Lumateperone, 4-((6bR,10aS)-3-methyl-2,3,6b,9,10,10a-hexahydro-1H,7H-pyrido[3′,4′: 4,5]pyrrolo[1,2,3-de]quinoxalin-8-yl)-1-(4-fluoro-phenyl)-butan-1-one]
Muscarinic receptors
  inhibition, muscarinic receptors: less than 50%
[2]
  inhibition of OATS: little to no inhibition
[3]
  enzymes involved in metabolism: involved in the metabolism
OAT1
  inhibition of OAT1: little to no inhibition
OCT2
  inhibition of OCT2: little to no inhibition
[4]; after a single 14C-labeled oral dose
  lumateperone share of total plasma radioactivity: about 2.8%
[4]; human mass balance study
  dose excreted as unchanged lumateperone in the urine: Less than 1%
[4]; in vivo
  metabolites identified in vivo: more than twenty
CYP2D6
  inhibition of CYP2D6: little to no inhibition
[5]
  effect on pharmacokinetics of midazolam (CYP3A4 substrate) or its metabolite 1-hydroxymidazolam: No clinically significant differences
[6]; high-fat meal
  increase of mean AUC by food: 9%
  lowering of mean Cmax by food: 33%
[6]; human, in vivo, iv
  Vd: ~4.1 L/kg
  clearance: ~465 mL/min
  half-life: ~1080 min
[6]; human, plasma, oral
  bioavailability: ~4.4%
[6]; human, plasma, oral, delay of median Tmax by food, high-fat meal
  Tmax: ~1 h
[6]; human, plasma, oral, median Tmax, fasted state
  Tmax: 1 h
[6]; human, plasma, oral, median Tmax, in the presence of food
  Tmax: 2 h
[6]; range of 21 mg to 56 mg
  increase in steady-state exposure with dose: approximately dose-proportional
P-gp
  P-gp substrate: did not appear to be
Plasma protein binding
  fraction unbound at 5 μM: 0.026
[7]; Child-Pugh class B and C
  exposure in patients with moderate and severe hepatic impairment: higher exposure
[7]; in vivo
  differences in pharmacokinetics based on age, sex, or race: No clinically significant differences
OATP1B1
  inhibition of OATP1B1: little to no inhibition
CYP3A4
  induction of CYP3A4: no induction
CYP2B6
  induction of CYP2B6: no induction
CYP1A2 [8]
  inhibition of CYP1A2: little to no inhibition
Histaminergic receptors
  inhibition, histaminergic receptors: less than 50%
BCRP
  BCRP substrate: did not appear to be
Dopamine D2 receptors
  Ki: 32 nM
OATP1B3
  inhibition of OATP1B3: little to no inhibition
CYP2C9
  inhibition of CYP2C9: little to no inhibition
CYP2C19
  inhibition of CYP2C19: little to no inhibition
CYP1A2 [9]
  induction of CYP1A2: no induction
[10]
  effect of concomitant CYP3A4 inducers on lumateperone exposure: decreases the exposure
  effect of concomitant moderate or strong CYP3A4 inhibitors on lumateperone exposure: increases lumateperone exposure

## O=C1CCc2ccc(OCCCCN3CCN(c4cccc(Cl)c4Cl)CC3)cc2N1 [aripiprazole]
[1]
  incidence of stroke and transient ischemic attack, including fatal stroke, versus placebo: higher incidence

## Cc1cc2c(s1)Nc1ccccc1N=C2N1CCN(C)CC1 [olanzapine]
[1]
  incidence of stroke and transient ischemic attack, including fatal stroke, versus placebo: higher incidence

## CN1CCN2c3c(cccc31)[C@@H]1CN(CCCC(=O)c3ccc(F)cc3)CC[C@@H]12.Cc1ccc(S(=O)(=O)O)cc1 [Lumateperone tosylate, 4-((6bR,10aS)-3-methyl-2,3,6b,9,10,10a-hexahydro-1H,7H-pyrido[3′,4′: 4,5]pyrrolo[1,2,3-de]quinoxalin-8-yl)-1-(4-fluoro-phenyl)-butan-1-one 4-methylbenzenesulfonate]
[11]; 4- to 6-week placebo-controlled studies, placebo 6.3%
  frequency of reported events related to extrapyramidal symptoms (EPS): 6.7%
[11]; [16]
  Creatine Phosphokinase Increased, adverse reaction incidence: 4%
  Fatigue, adverse reaction incidence: 3%
  Hepatic Enzymes Increased (ALT, AST, “hepatic enzymes” increased, or liver function tests abnormal), adverse reaction incidence: 2%
[11]; [17]
  Dry Mouth, adverse reaction incidence: 6%
  Vomiting, adverse reaction incidence: 3%
[11]; 4- to 6-week trials, 60 mg tosylate daily, N = 406, placebo 3%
  Dizziness (dizziness, dizziness postural), adverse reaction incidence: 5%
[11]; 4- to 6-week trials, 60 mg tosylate daily, N = 406, placebo 5%
  Nausea, adverse reaction incidence: 9%
[11]; 4- to 6-week trials, 60 mg tosylate daily, N = 406
  Somnolence/Sedation, adverse reaction incidence: 24%
[11]; 4- to 6-week trials, 60 mg tosylate daily, N = 406, listed as lumateperone tosylate
  Somnolence/Sedation, adverse reaction incidence: 24%
[11]; 4- to 6-week trials, score range 0 to 14, placebo 0
  mean change from baseline, Barnes Akathisia Rating Scale (BARS): −0.1
[11]; 4- to 6-week trials, score range 0 to 28, placebo 0
  mean change from baseline, Abnormal Involuntary Movement Scale (AIMS): 0.1
[11]; 4- to 6-week trials, score range 0 to 40, placebo 0
  mean change from baseline, Simpson Angus Scale (SAS): 0.1
[11]; clinical trials, placebo 0%
  frequency of orthostatic hypotension: 0.7%
[11]; clinical trials, placebo 0.2%
  rate of syncope: 0.2%
[11]; none occurred at >2%
  rate of any single adverse reaction leading to discontinuation: ≤ 2%
[11]; pooled placebo-controlled trials
  mean changes from baseline and proportion of subjects with increase in weight ≥7% from baseline to end of study, versus placebo: similar
[12]; 42 mg
  reduction from baseline to Day 28 in PANSS total score compared to placebo: statistically significant reduction
[12]; 42 mg, Day 28, CI −10.5, −1.1
  PANSS Total, Placebo-subtracted Difference (95% CI): −5.8
[12]; 42 mg, Day 28, N 84, placebo −7.4 (1.7)
  PANSS Total, LS Mean Change from Baseline (SE): −13.2 (1.7)
[12]; 84 mg (two times the recommended daily dose)
  treatment effect on PANSS total score vs. placebo: not statistically significant
[13]; 28 mg (two-thirds of the recommended daily dose)
  treatment effect on PANSS total score vs. placebo: not statistically significant
[13]; 42 mg
  reduction from baseline to Day 28 in PANSS total score compared to placebo: statistically significant reduction
[13]; 42 mg, Day 28, CI −7.8, −0.6
  PANSS Total, Placebo-subtracted Difference (95% CI): −4.2
[13]; 42 mg, Day 28, N 150, placebo −10.3 (1.3)
  PANSS Total, LS Mean Change from Baseline (SE): −14.5 (1.3)
[14]; 42 mg orally once daily for 5 days
  placebo-corrected change from baseline QTcF (90% two-sided upper confidence interval): 4.9 (8.9) ms
[14]; supratherapeutic dose 126 mg orally once daily for 5 days
  placebo-corrected change from baseline QTcF (90% two-sided upper confidence interval): 15.8 (19.8) ms
[15]; Day 175, SD 5.6
  mean change in body weight: approximately −2 kg
[15]; Day 350, SD 7.4
  mean change in body weight: approximately −3.2 kg
[15]; up to 1 year
  patients with normal hemoglobin A1c (<6.5%) at baseline who developed elevated levels (>6.5%) post-baseline: 4.7%
